From PubChem BioAssay AID977614 (Broad Institute, 2014)
The source made the active and inactive calls.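 How the source made its calls: active means parasite count per well reduced by over 3 SD from the mean, with host cell number above 80% of untreated; inactive means the rest.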

test system: L. donovani amastigotes in THP-1 macrophages, DAPI imaging, 72 h; assay: L. donovani intracellular amastigote growth inhibitors, imaging, THP-1 host macrophages, single concentration (AID 977614);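 further: signal is the parasite per host cell ratio from DAPI stained kinetoplasts and nuclei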

| Structure (SMILES) | AC50 |
| --- | --- |
| CCC(=O)N1[C@H](CO)[C@@H]2c3ccccc3N(C(=O)c3cnccn3)C[C@@H]21 | > 10 µM (inactive) |
| COc1ccc(-c2ccc([C@@H]3[C@H](CN(C)S(C)(=O)=O)N[C@@H]3CO)cc2)cc1 | > 10 µM (inactive) |
| C[C@@H]1CN([C@@H](C)CO)C(=O)CCCn2nncc2CO[C@@H]1CN(C)C(=O)Nc1ccc2c(c1)OCCO2 | > 10 µM (inactive) |
| C[C@@H]1CN([C@H](C)CO)C(=O)CCCn2cc(nn2)CO[C@H]1CN(C)C(=O)Nc1cccc2ccccc12 | > 10 µM (inactive) |
| C[C@@H]1CN([C@H](C)CO)C(=O)CCCn2nncc2CO[C@@H]1CN(C)C(=O)Oc1cccc2ccccc12 | > 10 µM (inactive) |
| O=C(Cc1ccccn1)N1[C@@H]2CNc3ccccc3[C@@H]2[C@@H]1CO | > 10 µM (inactive) |
| CC(=O)N1C[C@@H]2[C@H](c3ccccc31)[C@H](CO)N2Cc1ccc(Cl)cc1 | > 10 µM (inactive) |
| COc1ccc(CN(C)C[C@H]2OCc3cnnn3CCCC(=O)N([C@@H](C)CO)C[C@H]2C)cc1 | > 10 µM (inactive) |
| CN(C[C@H]1[C@H](c2ccccc2)[C@@H](CO)N1Cc1ccccn1)S(C)(=O)=O | > 10 µM (inactive) |
| CC(=O)N1[C@H](CNC(=O)CN(C)C)[C@@H](c2ccc(C3=CCCCC3)cc2)[C@@H]1CO | > 10 µM (inactive) |
| Cc1noc(C)c1NC(=O)N(C)C[C@H]1OCc2cnnn2CCCC(=O)N([C@@H](C)CO)C[C@H]1C | > 10 µM (inactive) |
| C[C@H](CO)N1C[C@H](C)[C@@H](CN(C)Cc2ccc(C(=O)Nc3ccccc3N)cc2)OCc2cnnn2CCCC1=O | > 10 µM (inactive) |
| CCCNC(=O)N1C[C@H]2[C@@H](c3ccccc31)[C@@H](CO)N2Cc1cccc(OC)c1 | > 10 µM (inactive) |
| CCCC(=O)N1C[C@@H]2[C@H](c3ccccc31)[C@H](CO)N2Cc1cocn1 | > 10 µM (inactive) |
| COCC(=O)N(C)C[C@H]1[C@@H](c2ccccc2)[C@H](CO)N1C(=O)Cc1ccncc1 | > 10 µM (inactive) |
| O=C(NC[C@H]1N[C@H](CO)[C@@H]1c1ccccc1)c1ccccc1F | > 10 µM (inactive) |
| O=C(c1ccncc1)N1C[C@@H]2[C@H](c3ccccc31)[C@@H](CO)N2C(=O)CN1CCOCC1 | > 10 µM (inactive) |
| C/C=C/c1ccc([C@H]2[C@@H](CO)N(c3nc(C)c(C)s3)[C@@H]2CNCC(C)C)cc1 | > 10 µM (inactive) |
| C/C=C/c1ccc([C@H]2[C@@H](CO)N(S(C)(=O)=O)[C@@H]2CN(C(C)=O)C(C)C)cc1 | > 10 µM (inactive) |
| O=C(Cc1ccccc1)NC[C@H]1N[C@H](CO)[C@@H]1c1ccc(C2=CCCC2)cc1 | > 10 µM (inactive) |
| O=C(CN1CCOCC1)N(CC1CCC1)C[C@H]1N[C@H](CO)[C@@H]1c1ccccc1 | > 10 µM (inactive) |
| C[C@@H]1CN([C@@H](C)CO)C(=O)CCCn2nncc2CO[C@H]1CN(C)S(=O)(=O)c1ccc2c(c1)OCCCO2 | > 10 µM (inactive) |
| O=C(C1CCCCC1)N1[C@@H]2CNc3ccccc3[C@@H]2[C@@H]1CO | > 10 µM (inactive) |
| CCN(C[C@@H]1N[C@H](CO)[C@H]1c1ccccc1)C(=O)c1ccncc1 | > 10 µM (inactive) |
| O=C(Cc1ccccn1)N1[C@@H](CO)[C@@H]2c3ccccc3NC[C@@H]21 | > 10 µM (inactive) |
| C[C@H]1CN([C@@H](C)CO)C(=O)CCCn2cc(nn2)CO[C@H]1CN(C)S(=O)(=O)c1ccc(-n2cccn2)cc1 | > 10 µM (inactive) |

| Structure (SMILES) | AC50 |
| --- | --- |
| CC(=O)NC[C@@H]1[C@@H](c2ccc(C3=CCCC3)cc2)[C@H](CO)N1Cc1cccnc1 | > 10 µM (inactive) |
| C[C@H](CO)N1C[C@H](C)[C@H](CN(C)C(=O)CCC(F)(F)F)OCc2cn(nn2)CCCC1=O | > 10 µM (inactive) |
| O=C(Nc1ccc(F)cc1)N1C[C@@H]2[C@H](c3ccccc31)[C@@H](CO)N2Cc1ccccc1Cl | > 10 µM (inactive) |
| C[C@@H]1CN([C@H](C)CO)C(=O)CCCn2cc(nn2)CO[C@@H]1CN(C)C(=O)CCC(F)(F)F | > 10 µM (inactive) |
| C[C@H](CO)N1C[C@H](C)[C@@H](CN(C)S(=O)(=O)c2ccc(Oc3ccccc3)nc2)OCc2cnnn2CCCC1=O | > 10 µM (inactive) |
| C[C@H]1CN([C@@H](C)CO)C(=O)CCCn2nncc2CO[C@@H]1CN(C)S(=O)(=O)c1ccc2c(c1)OCCCO2 | > 10 µM (inactive) |
| C[C@@H]1CN([C@H](C)CO)C(=O)CCCn2cc(nn2)CO[C@H]1CN(C)S(=O)(=O)c1cccc(C#N)c1 | > 10 µM (inactive) |
| C[C@H]1CN([C@@H](C)CO)C(=O)CCCn2nncc2CO[C@@H]1CN(C)C(=O)Oc1cccc2ccccc12 | > 10 µM (inactive) |
| OC[C@H]1[C@H]2c3ccccc3NC[C@H]2N1Cc1ccccc1Cl | > 10 µM (inactive) |
| C[C@@H]1CN([C@H](C)CO)C(=O)CCCn2nncc2CO[C@@H]1CN(C)S(=O)(=O)c1ccc(Oc2ccccc2)nc1 | > 10 µM (inactive) |
| O=C(NC[C@@H]1N[C@@H](CO)[C@@H]1c1ccccc1)c1ccccc1F | > 10 µM (inactive) |
| O=C(C1CCOCC1)N1C[C@@H]2[C@H](c3ccccc31)[C@@H](CO)N2C(=O)Cc1ccccn1 | > 10 µM (inactive) |
| C/C=C/c1ccc([C@H]2[C@@H](CO)N[C@@H]2CN(CC(C)C)C(=O)c2ccccn2)cc1 | > 10 µM (inactive) |
| O=C(C1CCOCC1)N1C[C@H]2[C@@H](c3ccccc31)[C@@H](CO)N2C(=O)Nc1ccccc1F | > 10 µM (inactive) |
| O=S(=O)(NC[C@H]1[C@H](c2ccccc2)[C@@H](CO)N1CC1CC1)c1ccccc1 | > 10 µM (inactive) |
| CCc1csc(N2[C@H](CO)[C@H](c3ccccc3)[C@@H]2CNC)n1 | > 10 µM (inactive) |
| C[C@@H]1CN([C@@H](C)CO)C(=O)CCCn2nncc2CO[C@H]1CN(C)C(=O)Nc1ccnc(N2CCOCC2)c1 | > 10 µM (inactive) |
| CC(C)NC(=O)N1[C@H](CO)[C@@H](c2ccccc2)[C@@H]1CN(C)C(=O)c1cccnc1 | > 10 µM (inactive) |
| C[C@H](CO)N1C[C@H](C)[C@H](CN(C)C(=O)c2ccc(N3CCN(C)CC3)cc2)OCc2cnnn2CCCC1=O | > 10 µM (inactive) |
| O=C(Nc1ccc(F)cc1)N1[C@@H]2CNc3ccccc3[C@@H]2[C@@H]1CO | > 10 µM (inactive) |
| CCN(C[C@@H]1[C@H](c2ccccc2)[C@@H](CO)N1C(=O)COC)S(C)(=O)=O | > 10 µM (inactive) |
| O=C(Nc1cccc(F)c1)N1C[C@@H]2[C@H](c3ccccc31)[C@H](CO)N2C(=O)Cc1ccccn1 | > 10 µM (inactive) |
| CC(C)NC(=O)N1[C@H](CNC(=O)CN(C)C)[C@@H](c2ccccc2)[C@@H]1CO | > 10 µM (inactive) |
| C/C=C/c1ccc([C@@H]2[C@@H](CN(C)C(C)=O)N(C(=O)NC(C)C)[C@H]2CO)cc1 | > 10 µM (inactive) |
| O=C(c1ccncc1)N1C[C@@H]2[C@H](c3ccccc31)[C@H](CO)N2Cc1ccccc1F | > 10 µM (inactive) |
| C[C@H](CO)N1C[C@H](C)[C@H](CN(C)S(=O)(=O)c2cn(C)cn2)OCc2cnnn2CCCC1=O | > 10 µM (inactive) |

| Structure (SMILES) | AC50 |
| --- | --- |
| CCN(C[C@H]1[C@@H](c2ccccc2)[C@H](CO)N1C(=O)COC)S(C)(=O)=O | > 10 µM (inactive) |
| COCC(=O)N1C[C@H]2[C@@H](c3ccccc31)[C@H](CO)N2Cc1cc(F)ccc1F | > 10 µM (inactive) |
| O=C(c1ccccn1)N1C[C@@H]2[C@H](c3ccccc31)[C@H](CO)N2C(=O)Nc1ccccc1Cl | > 10 µM (inactive) |
| C[C@H](CO)N1C[C@H](C)[C@@H](CN(C)S(=O)(=O)c2ccccc2C#N)OCc2cnnn2CCCC1=O | > 10 µM (inactive) |
| O=C(NC[C@@H]1[C@H](c2ccccc2)[C@@H](CO)N1Cc1cccnc1)c1ccccn1 | > 10 µM (inactive) |
| C[C@H](CO)N1C[C@H](C)[C@H](CN(C)C(=O)c2ccc3ccn(C)c3c2)OCc2cnnn2CCCC1=O | > 10 µM (inactive) |
| O=C(C1CCCCC1)N1[C@@H]2CN(S(=O)(=O)c3ccccc3)c3ccccc3[C@@H]2[C@@H]1CO | > 10 µM (inactive) |
| C[C@H]1CN([C@@H](C)CO)C(=O)CCCn2nncc2CO[C@@H]1CN(C)C(=O)Nc1ccccc1C(F)(F)F | > 10 µM (inactive) |
| COCC(=O)N1[C@H](CO)[C@@H]2c3ccccc3N(C)C[C@@H]21 | > 10 µM (inactive) |
| CNC[C@H]1OCc2cn(nn2)CCCC(=O)N([C@@H](C)CO)C[C@@H]1C | > 10 µM (inactive) |
| C[C@@H]1CN([C@H](C)CO)C(=O)CCCn2cc(nn2)CO[C@@H]1CN(C)C(=O)Nc1ccc2c(c1)OCO2 | > 10 µM (inactive) |
| CCCNC(=O)N1[C@H](CO)[C@@H]2c3ccccc3N(C(=O)c3ccncc3)C[C@@H]21 | > 10 µM (inactive) |
| O=S(=O)(NC[C@H]1[C@H](c2ccccc2)[C@H](CO)N1CC1CC1)c1ccccc1 | > 10 µM (inactive) |
| COc1ccc(CN2[C@@H](CO)[C@@H]3c4ccccc4NC[C@@H]32)cc1 | > 10 µM (inactive) |
| CCCNC(=O)N1C[C@H]2[C@@H](c3ccccc31)[C@H](CO)N2Cc1cccc(OC)c1 | > 10 µM (inactive) |
| CCN(C[C@@H]1[C@@H](c2ccccc2)[C@H](CO)N1CC1CC1)C(=O)c1ccccn1 | > 10 µM (inactive) |
| CC(=O)N1[C@@H](CO)[C@@H](c2ccccc2)[C@@H]1CN(C)S(=O)(=O)c1ccccc1 | > 10 µM (inactive) |
| COc1ccc(CN2[C@H](CO)[C@@H]3c4ccccc4NC[C@@H]32)cc1 | > 10 µM (inactive) |
| O=C(c1ccc2c(c1)OCO2)N1C[C@@H]2[C@H](c3ccccc31)[C@@H](CO)N2Cc1cccnc1 | > 10 µM (inactive) |
| O=C(Nc1ccccc1Cl)N1C[C@@H]2[C@H](c3ccccc31)[C@@H](CO)N2C(=O)c1cccnc1 | > 10 µM (inactive) |
| CCN(C[C@@H]1[C@@H](c2ccc(-c3cccnc3)cc2)[C@H](CO)N1C(C)=O)C(C)=O | > 10 µM (inactive) |
| C[C@@H]1CN([C@@H](C)CO)C(=O)CCCn2nncc2CO[C@@H]1CN(C)Cc1cccc(C(F)(F)F)c1 | > 10 µM (inactive) |
| CCN(C[C@H]1[C@H](c2ccccc2)[C@@H](CO)N1S(C)(=O)=O)C(=O)C1CCCC1 | > 10 µM (inactive) |
| COc1ccccc1C(=O)N1C[C@H]2[C@@H](c3ccccc31)[C@@H](CO)N2CC1CCCC1 | > 10 µM (inactive) |
| COc1ccccc1CN1[C@@H]2CN(C(=O)c3cccnc3)c3ccccc3[C@@H]2[C@@H]1CO | > 10 µM (inactive) |
